# Reference: patent US9777070B2, “Anti-PTK7 antibody-drug conjugates” (Pfizer Inc., priority 2014, dated 2017)
# How the values were obtained:
# Test in all cases: In vivo efficacy, PDX tumor growth
# Parameters in all cases: species or system human tumor in NOD/SCID mice
# [1] = system: Breast-13 (BR13) triple-negative breast cancer (TNBC) PDX; conditions: 1 mg/kg
# Text: (§1) The effects of anti-PTK7 antibody-drug conjugates were further evaluated on the in vivo growth of human tumor patient-derived xenografts (PDX). Primary tumor resection samples were procured from clinical sites following Institutional Review Board for the Protection of Human Subjects approval and in accordance with HIPAA regulations. Tumor fragments were stored and shipped in Hypothermasol (Biolife Solutions) on ice and were embedded in Matrigel (BD) containing a proprietary mix of growth factors and implanted subcutaneously into the mammary fatpad of female NOD/SCID mice within 24 hours of resection. Mice were monitored for health status daily and for tumor growth initially by visual inspection twice per week. Once the tumors were palpable, measurements of tumor volume began to track tumor growth and estimate cell doubling time. Tumor volume was estimated using the equation V=(A*B^2)/2 where A is the long axis and B is the short axis. When tumors reached a volume of 500 mm^3 to 1,500 mm^3, they were harvested for study and for re-transplant as a patient-derived xenograft (PDX). Depending on the line, mechanical and/or chemical dissociation can be used to separate the individual cells for passage. Live cells were inoculated into naïve animals with 10,000 to 50,000 cells per animals
# (§2) For efficacy studies, tumors were harvested from passaging studies and cells were dissociated into single cell suspension. Preparations were counted for live cells using Trypan blue exclusion and 10,000 to 50,000 cells were inoculated per mouse in Matrigel. […] Tumor growth was initially followed by palpability with measurements beginning once tumor volumes reached about 30 mm^3. Studies were randomized based on tumor size once a cohort of tumor-bearing mice reached 140 mm^3 to 180 mm^3. Animals were dosed by intraperitoneal injection twice a week for two weeks (q4dx4). Study groups were followed until individual mice or entire group tumor measurements reached 1200 mm^3 when sacrifice was indicated in accordance with IACUC protocol. For selected dosing studies, pharmacokinetic submandibular bleeds were performed at 2 hours, 36 hours and 72 hours. A volume of 10 μL of blood was immediately pipetted into 90 μL of HBS-P (GE Healthcare). Samples were stored at −80° C. prior to analysis. For each tumor measurement the tumor volume±standard error of the mean (SEM) is provided. GT=Group Terminated due to large tumor size.
# (§3) Animals were dosed every four days for four cycles (Q4Dx4) by intraperitoneal injection except the BR5 study which was by intravenous injection on the same schedule. Tumor measurements were recorded one or two times per week using digital calipers and tumor volume was estimated using the equation V=(A×B^2)/2 where A is the long axis and B is the short axis. Animal body weights were measured and recorded at least once a week. Study groups were followed until individual mice or entire group tumor measurements reached 1200 mm^3 at which point sacrifice was indicated in accordance with IACUC protocol. For the BR5 study, animals were sacrificed once tumor volume approached 15% of the body weight at staging in accordance with IACUC protocol.
# (§4) Tumor growth inhibition (TGI) was calculated using the equation % TGI=[1−(mean tumor volume of treated)/(mean tumor volume of vehicle)]. TGI was calculated at the latest possible time point, which was typically the last measurement before the control group was discontinued as described above. Tumor regression was defined as a reduction in mean tumor volume after dosing. In cases where tumors regressed, Time To Progression (TTP) indicates the number of days between the first does and the time at which mean tumor volume increased from the previous measurement to a statistically significant degree.
# [2] = system: Breast-22 (BR22) TNBC PDX; conditions: 1.5 mg/kg
# Text: as §1, §2, §3
# as §4, with “TGI was calculated at the latest possible time point, which was typically the last measurement before the control group was discontinued as described above.” left out
# [3] = system: Breast-31 (BR31) TNBC PDX; conditions: 1.5 mg/kg
# Text: as §1, §2, §3
# as §4, with “TGI was calculated at the latest possible time point, which was typically the last measurement before the control group was discontinued as described above.” left out
# [4] = system: non-small cell lung cancer-176 (LU176) PDX; conditions: 5 mg/kg
# Text: as §1, §2, §3, §4
# [5] = system: non-small cell lung cancer-135 (LU135) PDX; conditions: 20 mg/kg
# Text: as §1, §2, §3, §4
smiles,measurement,setting,value
"COc1cccc2c1C(=O)c1c(O)c3c(c(O)c1C2=O)C[C@@](O)(C(=O)CO)C[C@@H]3O[C@H]1C[C@H](N)[C@H](O)[C@H](C)O1 [Doxorubicin, doxorubicin, reference compound]",tumor volume ± SEM,[1]; Day 0,156 ± 13 mm^3
same,tumor volume ± SEM,[1]; Day 7,219 ± 29 mm^3
same,tumor volume ± SEM,[1]; Day 14,295 ± 39 mm^3
same,tumor volume ± SEM,[1]; Day 21,353 ± 45 mm^3
same,tumor volume ± SEM,[1]; Day 28,432 ± 50 mm^3
same,tumor volume ± SEM,[1]; Day 35,696 ± 84 mm^3
same,tumor volume ± SEM,[1]; Day 42,1001 ± 159 mm^3
same,tumor volume ± SEM,[2]; Day 0,297 ± 17 mm^3
same,tumor volume ± SEM,[2]; Day 14,641 ± 39 mm^3
same,tumor volume ± SEM,[3]; Day 0,160 ± 11 mm^3
same,tumor volume ± SEM,[3]; Day 7,304 ± 20 mm^3
same,tumor volume ± SEM,[3]; Day 28,759 ± 111 mm^3
"N.N.[Cl][Pt][Cl] [cisplatin, reference compound]",tumor volume ± SEM,[4]; Day 0,259 ± 26 mm^3
same,tumor volume ± SEM,[4]; Day 7,124 ± 30 mm^3
same,tumor volume ± SEM,[4]; Day 14,97 ± 22 mm^3
same,tumor volume ± SEM,[4]; Day 21,102 ± 24 mm^3
same,tumor volume ± SEM,[4]; Day 28,179 ± 71 mm^3
same,tumor volume ± SEM,[4]; Day 35,207 ± 69 mm^3
same,tumor volume ± SEM,[4]; Day 42,297 ± 97 mm^3
same,tumor volume ± SEM,[4]; Day 49,619 ± 262 mm^3
"CC(=O)O[C@H]1C(=O)[C@@]2(C)[C@H]([C@H](OC(=O)c3ccccc3)[C@]3(O)C[C@H](OC(=O)[C@H](O)[C@@H](NC(=O)c4ccccc4)c4ccccc4)C(C)=C1C3(C)C)[C@]1(OC(C)=O)CO[C@@H]1C[C@@H]2O [paclitaxel, reference compound]",tumor volume ± SEM,[5]; Day 0,175 ± 24 mm^3
same,tumor volume ± SEM,[5]; Day 7,77 ± 13 mm^3
same,tumor volume ± SEM,[5]; Day 14,58 ± 12 mm^3
same,tumor volume ± SEM,[5]; Day 21,60 ± 11 mm^3
same,tumor volume ± SEM,[5]; Day 28,93 ± 20 mm^3
same,tumor volume ± SEM,[5]; Day 35,110 ± 31 mm^3
same,tumor volume ± SEM,[5]; Day 42,184 ± 48 mm^3
same,tumor volume ± SEM,[5]; Day 49,284 ± 78 mm^3
same,tumor volume ± SEM,[5]; Day 56,384 ± 106 mm^3
same,tumor volume ± SEM,[5]; Day 63,538 ± 178 mm^3
same,tumor volume ± SEM,[5]; Day 70,667 ± 174 mm^3
same,tumor volume ± SEM,[5]; Day 77,724 ± 171 mm^3
